Experimental data: patent US9932354B2, “Imidazo-oxadiazole and imidazo-thiadiazole derivatives” (Ares Trading S.A., priority 2012, dated 2018)

What was measured:
[1] = test system: Amyloid-β peptide release (Aβ42), HEK cells overexpressing APP (HEK-APP); experiment: Amyloid-β peptide release (Aβ42) assay, AlphaLISA on supernatant of HEK-APP cells; type: cell-based; conditions: Homo sapiens, HEK293, 24 h incubation with compound, read-out: Ab42 IC50 Ranges
Method: (§1) Amyloid-β Peptide Release (Aβ42 & AβTotal) Assay to Determine IC50 Values.
(§2) Compounds are dissolved in and diluted in 100% DMSO and incubated with HEK-APP cells for 24 h at 37° C. in 5% CO2. The supernatant from HEK-APP cells are mixed with antibodies: for Aβ42 detection: AlphaLISA Amyloid-β 1-42 Kit (Perkin Elmer AL203L) Anti-Amyloid β1-42-specific antibody acceptor beads, biotinylated anti-Amyloid-“β1-42” antibody and streptavidin (SA) donor beads diluted in AlphaLISA buffer (to the instructions of the supplier). For Aβ total detection: Custom Anti-Amyloid-βtotal acceptor beads (6E10 acceptor beads), biotinylated anti-Amyloid “β1-42” antibody (Perkin Elmer AL203L) and streptavidin (SA) donor beads diluted in AlphaLISA buffer (to the instructions of the supplier). After addition of supernatant to the antibody mix, the assay is incubated for 4.5 h. Amyloid-β peptide release (Aβ42 & AβTotal) is measured with a Pherastar FS (BMG) multimode reader using the alphascreen module.

[2] = test system: Amyloid-β peptide release (AβTotal), HEK cells overexpressing APP (HEK-APP); experiment: Amyloid-β peptide release (AβTotal) assay, AlphaLISA on supernatant of HEK-APP cells; type: cell-based; conditions: ratio Abtot vs Ab42, HEK-APP cells, 24 h
Method: as §1, §2

SMILES	IC50 [1] [µM]	Abtot/Ab42 selectivity ranges [2]
Cc1ncc2oc(-c3ccc(NC(=O)Nc4cccc(C(F)(F)F)c4)cc3)nn12 [Example 52, 1-[4-(5-Methyl-imidazo[5,1-b][1,2,4]oxadiazol-2-yl)-phenyl]-3-(3-trifluoromethyl-phenyl)-urea]	1 to 2.2	d (d: 10 fold > selectivity)
COc1ccccc1CC(=O)Nc1ccc(-c2nn3c(C)ncc3o2)cc1 [Example 53, 2-(2-Methoxy-phenyl)-N-[4-(5-methyl-imidazo[5,1-b][1,2,4]oxadiazol-2-yl)-phenyl]-acetamide]	1 to 2.2	d (d: 10 fold > selectivity)
Cc1ncc2oc(-c3ccc(NC(=O)NCc4ccccc4Cl)cc3)nn12 [Example 54, 1-(2-Chloro-benzyl)-3-[4-(5-methyl-imidazo[5,1-b][1,2,4]oxadiazol-2-yl)-phenyl]-urea]	1 to 2.2	c (c: 50 fold > selectivity ≥ 10 fold)
Cc1ncc2oc(-c3ccc(NC(=O)C(C)c4cccc(C(F)(F)F)c4)cc3)nn12 (centres unmarked) [Example 55, N-(4-(5-methylimidazo[5,1-b][1,3,4]oxadiazol-2-yl)phenyl)-2-(3-(trifluoromethyl)phenyl)propanamide]	1 to 2.2	c (c: 50 fold > selectivity ≥ 10 fold)
Cc1ncc2oc(-c3ccc(NC(=O)Cc4ccc(-c5ccccc5)cc4)cc3)nn12 [Example 56, 2-Biphenyl-4-yl-N-[4-(5-methyl-imidazo[5,1-b][1,2,4]oxadiazol-2-yl)-phenyl]-acetamide]	0.1 to 0.5	a (a: selectivity ≥ 100 fold)
Cc1ncc2oc(-c3ccc(NC(=O)Cc4ccc(C(C)(C)C)cc4)cc3)nn12 [Example 57, 2-(4-tert-Butyl-phenyl)-N-[4-(5-methyl-imidazo[5,1-b][1,2,4]oxadiazol-2-yl)-phenyl]-acetamide]	0.5 to 1	b (b: 100 fold > selectivity ≥ 50 fold)
Cc1ncc2oc(-c3ccc(NC(=O)Nc4ccccc4C(F)(F)F)cc3)nn12 [Example 58, 1-[4-(5-Methyl-imidazo[5,1-b][1,2,4]oxadiazol-2-yl)-phenyl]-3-(2-trifluoromethyl-phenyl)-urea]	0.5 to 1	d (d: 10 fold > selectivity)
Cc1ncc2oc(-c3ccc(NC(=O)Nc4ccc(OC(F)(F)F)cc4)cc3)nn12 [Example 59, 1-[4-(5-Methyl-imidazo[5,1-b][1,2,4]oxadiazol-2-yl)-phenyl]-3-(4-trifluoromethoxy-phenyl)-urea]	1 to 2.2	c (c: 50 fold > selectivity ≥ 10 fold)
Cc1ccccc1CC(=O)Nc1ccc(-c2nn3c(C)ncc3o2)cc1 [Example 60, N-[4-(5-Methyl-imidazo[5,1-b][1,2,4]oxadiazol-2-yl)-phenyl]-2-o-tolyl-acetamide]	1 to 2.2	c (c: 50 fold > selectivity ≥ 10 fold)
Cc1ncc2oc(-c3ccc(NC(=O)Cc4cc(F)cc(F)c4F)cc3)nn12 [Example 61, N-(4-(5-methylimidazo[5,1-b][1,3,4]oxadiazol-2-yl)phenyl)-2-(2,3,5-trifluorophenyl)acetamide]	0.5 to 1	b (b: 100 fold > selectivity ≥ 50 fold)
Cc1ncc2oc(-c3ccc(NC(=O)Cc4ccc(Cl)cc4Cl)cc3)nn12 [Example 62, 2-(2,4-dichlorophenyl)-N-(4-(5-methylimidazo[5,1-b][1,3,4]oxadiazol-2-yl)phenyl)acetamide]	0.5 to 1	b (b: 100 fold > selectivity ≥ 50 fold)
Cc1ncc2oc(-c3ccc(NC(=O)Cc4cccc(Cl)c4)cc3)nn12 [Example 63, 2-(3-chlorophenyl)-N-(4-(5-methylimidazo[5,1-b][1,3,4]oxadiazol-2-yl)phenyl)acetamide]	0.5 to 1	b (b: 100 fold > selectivity ≥ 50 fold)
Cc1ncc2oc(-c3ccc(NC(=O)Cc4cccc(C#N)c4)cc3)nn12 [Example 64, 2-(3-cyanophenyl)-N-(4-(5-methylimidazo[5,1-b][1,3,4]oxadiazol-2-yl)phenyl)acetamide]	0.5 to 1	b (b: 100 fold > selectivity ≥ 50 fold)
Cc1ncc2oc(-c3ccc(NC(=O)Cc4ccc(F)cc4Cl)cc3)nn12 [Example 65, 2-(2-chloro-4-fluorophenyl)-N-(4-(5-methylimidazo[5,1-b][1,3,4]oxadiazol-2-yl)phenyl)acetamide]	1 to 2.2	c (c: 50 fold > selectivity ≥ 10 fold)
Cc1ncc2oc(-c3ccc(NC(=O)Cc4cc(F)ccc4C(F)(F)F)cc3)nn12 [Example 66, 2-(5-fluoro-2-(trifluoromethyl)phenyl)-N-(4-(5-methylimidazo [5,1-b][1,3,4]oxadiazol-2-yl)phenyl)acetamide]	1 to 2.2	c (c: 50 fold > selectivity ≥ 10 fold)
Cc1ncc2oc(-c3ccc(NC(=O)Cc4c(Cl)cc(C(F)(F)F)cc4Cl)cc3)nn12 [Example 67, 2-(2,6-dichloro-4-(trifluoromethyl)phenyl)-N-(4-(5-methylimidazo [5,1-b][1,3,4]oxadiazol-2-yl)phenyl)acetamide]	1 to 2.2	c (c: 50 fold > selectivity ≥ 10 fold)
COc1c(F)ccc(CC(=O)Nc2ccc(-c3nn4c(C)ncc4o3)cc2)c1F [Example 68, 2-(2,4-difluoro-3-methoxyphenyl)-N-(4-(5-methylimidazo[5,1-b][1,3,4]oxadiazol-2-yl)phenyl)acetamide]	0.5 to 1	b (b: 100 fold > selectivity ≥ 50 fold)
COc1ccc(Cl)c(CC(=O)Nc2ccc(-c3nn4c(C)ncc4o3)cc2)c1F [Example 69, 2-(6-chloro-2-fluoro-3-methoxyphenyl)-N-(4-(5-methylimidazo [5,1-b][1,3,4]oxadiazol-2-yl)phenyl)acetamide]	0.5 to 1	b (b: 100 fold > selectivity ≥ 50 fold)
Cc1ncc2oc(-c3ccc(NC(=O)Cc4cccc(OCc5ccccc5)c4)cc3)nn12 [Example 70, 2-(3-(benzyloxy)phenyl)-N-(4-(5-methylimidazo[5,1-b][1,3,4]oxadiazol-2-yl)phenyl)acetamide]	1 to 2.2	c (c: 50 fold > selectivity ≥ 10 fold)
Cc1ncc2oc(-c3ccc(NC(=O)Cc4cccc5ccccc45)cc3)nn12 [Example 71, N-(4-(5-methylimidazo[5,1-b][1,3,4]oxadiazol-2-yl)phenyl)-2-(naphthalen-1-yl)acetamide]	0.5 to 1	b (b: 100 fold > selectivity ≥ 50 fold)
Cc1ncc2oc(-c3ccc(Nc4ccnc(NCc5ccccc5)n4)cc3)nn12 [Example 72, N2-benzyl-N4-(4-(5-methylimidazo[5,1-b][1,3,4]oxadiazol-2-yl)phenyl)pyrimidine-2,4-diamine]	1 to 2.2	d (d: 10 fold > selectivity)
Cc1ncc2oc(-c3ccc(NC(=O)Cc4csc5ccc(Cl)cc45)cc3)nn12 [Example 73, 2-(5-chlorobenzo[b]thiophen-3-yl)-N-(4-(5-methylimidazo[5,1-b] [1,3,4]oxadiazol-2-yl)phenyl)acetamide]	1 to 2.2	c (c: 50 fold > selectivity ≥ 10 fold)
Cc1ncc2oc(-c3ccc(Nc4nccc(NCc5ccccc5C(F)(F)F)n4)cc3)nn12 [Example 74, N2-(4-(5-methylimidazo[5,1-b][1,3,4]oxadiazol-2-yl)phenyl)-N4-(2-(trifluoromethyl)benzyl)pyrimidine-2,4-diamine]	1 to 2.2	d (d: 10 fold > selectivity)
Cc1cccc(CNc2ccnc(Nc3ccc(-c4nn5c(C)ncc5o4)cc3)n2)c1 [Example 75, N4-(3-methylbenzyl)-N2-(4-(5-methylimidazo[5,1-b][1,3,4]oxadiazol-2-yl)phenyl)pyrimidine-2,4-diamine]	1 to 2.2	d (d: 10 fold > selectivity)
Cc1ncc2oc(-c3ccc(Nc4nccc(NCc5cccc(C(F)(F)F)c5)n4)cc3)nn12 [Example 76, N2-(4-(5-methylimidazo[5,1-b][1,3,4]oxadiazol-2-yl)phenyl)-N4-(3-(trifluoromethyl)benzyl) pyrimidine-2,4-diamine]	1 to 2.2	d (d: 10 fold > selectivity)
Cc1ncc2oc(-c3ccc(NC(=O)Cc4ccc(Cl)c(Cl)c4)cc3)nn12 [Example 77, 2-(3,4-dichlorophenyl)-N-(4-(5-methylimidazo[5,1-b][1,3,4]oxadiazol-2-yl)phenyl)acetamide]	0.1 to 0.5	a (a: selectivity ≥ 100 fold)
Cc1ncc2oc(-c3ccc(NC(=O)Cc4ccc(Oc5ccccc5)cc4)cn3)nn12 [Example 78, N-[6-(5-Methyl-imidazo[5,1-b][1,2,4]oxadiazol-2-yl)-pyridin-3-yl]-2-(4-phenoxy-phenyl)-acetamide]	1 to 2.2	c (c: 50 fold > selectivity ≥ 10 fold)
Cc1ncc2oc(-c3ccc(NC(=O)Cc4cccc(F)c4F)cn3)nn12 [Example 79, 2-(2,3-Difluoro-phenyl)-N-[6-(5-methyl-imidazo[5,1-b][1,2,4]oxadiazol-2-yl)-pyridin-3-yl]-acetamide]	1 to 2.2	c (c: 50 fold > selectivity ≥ 10 fold)
